{"source": "ChEMBL document CHEMBL5505985", "about": "(Eur J Med Chem, 2024)", "key": {"[1]": {"assay": "Selectivity index, ratio of IC50 for ovine COX-1 to IC50 for human COX-2"}, "RAW264.7 [2]": {"system": "RAW264.7", "assay": "Antiinflammatory activity in LPS-induced mouse RAW264.7 cells assessed as inhibition of NO secretion preincubated for 1 hr followed by LPS stimulation and measured after 24 hrs by Griess assay", "format": "functional, cell-based", "details": "dose 2-30 µM, time 25.0 hrs"}, "RAW264.7 [3]": {"system": "RAW264.7", "assay": "Antiinflammatory activity in LPS-induced mouse RAW264.7 cells assessed as inhibition of ROS secretion preincubated for 1 hr followed by LPS stimulation and measured after 24 hrs by fluorescence based analysis", "format": "functional, cell-based", "details": "dose 2-30 µM, time 25.0 hrs"}, "RAW264.7 [4]": {"system": "RAW264.7", "assay": "Antiinflammatory activity in LPS-induced mouse RAW264.7 cells assessed as reduction in iNOS protien level at 10 uM preincubated for 1 hr followed by LPS stimulation and measured after 24 hrs […]", "format": "functional, cell-based", "details": "time 25.0 hrs"}, "RAW264.7 [5]": {"system": "RAW264.7", "assay": "Antiinflammatory activity in LPS-induced mouse RAW264.7 cells assessed as downregulation of TNF-alpha secretion preincubated for 1 hr followed by LPS stimulation and measured after 3 hrs by ELISA method", "format": "functional, cell-based", "details": "dose 2-30 µM, time 4.0 hrs"}, "RAW264.7 [6]": {"system": "RAW264.7", "assay": "Antiinflammatory activity in LPS-induced mouse RAW264.7 cells assessed as downregulation of IL-1 beta secretion preincubated for 1 hr followed by LPS stimulation and measured after 24 hrs by ELISA method", "format": "functional, cell-based", "details": "dose 2-30 µM, time 25.0 hrs"}, "RAW264.7 [7]": {"system": "RAW264.7", "assay": "Antiinflammatory activity in LPS-induced mouse RAW264.7 cells assessed as suppression of PGE2 secretion at 2 to 30 uM preincubated for 1 hr followed by LPS stimulation and measured after 24 hrs by ELISA method", "format": "functional, cell-based", "details": "dose 2-30 µM, time 25.0 hrs"}, "RAW264.7 [8]": {"system": "RAW264.7", "assay": "Inhibition of LPS-induced NFkappaB activation in mouse RAW264.7 cells assessed as reduction in NF-kappaB phosphorylation level preincubated for 1 hr followed by LPS stimulation and measured after 30 mins by Westernblot analysis", "format": "cell-based", "details": "dose 10-30 µM, time 1.5 hrs"}, "RAW264.7 [9]": {"system": "RAW264.7", "assay": "Inhibition of LPS-induced NFkappaB activation in mouse RAW264.7 cells assessed as inhibition of IKKalpha phosphorylation level preincubated for 1 hr followed by LPS stimulation and measured after 30 mins by Westernblot analysis", "format": "cell-based", "details": "dose 10-30 µM, time 1.5 hrs"}, "RAW264.7 [10]": {"system": "RAW264.7", "assay": "Inhibition of LPS-induced NFkappaB activation in mouse RAW264.7 cells assessed as inhibition of IkappaBalpha phosphorylation level preincubated for 1 hr followed by LPS stimulation and measured after 30 mins by Westernblot analysis", "format": "cell-based", "details": "dose 10-30 µM, time 1.5 hrs"}, "RAW264.7 [11]": {"system": "RAW264.7", "assay": "Inhibition of MAPK signalling pathway in LPS induced mouse RAW264.7 cells assessed as effect on p38 phosphorylation level at 10 to 30 uM preincubated for 1 hr followed by LPS stimulation and measured after 30 mins by Westernblot analysis", "format": "cell-based", "details": "dose 10-30 µM, time 1.5 hrs"}, "RAW264.7 [12]": {"system": "RAW264.7", "assay": "Inhibition of MAPK signalling pathway in LPS induced mouse RAW264.7 cells assessed as effect on JNK phosphorylation level at 10 to 30 uM preincubated for 1 hr followed by LPS stimulation and measured after 30 mins by Westernblot analysis", "format": "cell-based", "details": "dose 10-30 µM, time 1.5 hrs"}, "RAW264.7 [13]": {"system": "RAW264.7", "assay": "Cytotoxicity activity mouse RAW264.7 cells assessed as reduction in cell viability at 10 uM incubated for 48 hrs by MTT assay", "format": "toxicity, cell-based", "details": "raw264.7, 48 h"}, "[14]": {"target": "NACHT, LRR and PYD domains-containing protein 3 (Mus musculus) (UniProt Q8R4B8)", "sequence (Q8R4B8 whole entry, the tested form may be a part)": "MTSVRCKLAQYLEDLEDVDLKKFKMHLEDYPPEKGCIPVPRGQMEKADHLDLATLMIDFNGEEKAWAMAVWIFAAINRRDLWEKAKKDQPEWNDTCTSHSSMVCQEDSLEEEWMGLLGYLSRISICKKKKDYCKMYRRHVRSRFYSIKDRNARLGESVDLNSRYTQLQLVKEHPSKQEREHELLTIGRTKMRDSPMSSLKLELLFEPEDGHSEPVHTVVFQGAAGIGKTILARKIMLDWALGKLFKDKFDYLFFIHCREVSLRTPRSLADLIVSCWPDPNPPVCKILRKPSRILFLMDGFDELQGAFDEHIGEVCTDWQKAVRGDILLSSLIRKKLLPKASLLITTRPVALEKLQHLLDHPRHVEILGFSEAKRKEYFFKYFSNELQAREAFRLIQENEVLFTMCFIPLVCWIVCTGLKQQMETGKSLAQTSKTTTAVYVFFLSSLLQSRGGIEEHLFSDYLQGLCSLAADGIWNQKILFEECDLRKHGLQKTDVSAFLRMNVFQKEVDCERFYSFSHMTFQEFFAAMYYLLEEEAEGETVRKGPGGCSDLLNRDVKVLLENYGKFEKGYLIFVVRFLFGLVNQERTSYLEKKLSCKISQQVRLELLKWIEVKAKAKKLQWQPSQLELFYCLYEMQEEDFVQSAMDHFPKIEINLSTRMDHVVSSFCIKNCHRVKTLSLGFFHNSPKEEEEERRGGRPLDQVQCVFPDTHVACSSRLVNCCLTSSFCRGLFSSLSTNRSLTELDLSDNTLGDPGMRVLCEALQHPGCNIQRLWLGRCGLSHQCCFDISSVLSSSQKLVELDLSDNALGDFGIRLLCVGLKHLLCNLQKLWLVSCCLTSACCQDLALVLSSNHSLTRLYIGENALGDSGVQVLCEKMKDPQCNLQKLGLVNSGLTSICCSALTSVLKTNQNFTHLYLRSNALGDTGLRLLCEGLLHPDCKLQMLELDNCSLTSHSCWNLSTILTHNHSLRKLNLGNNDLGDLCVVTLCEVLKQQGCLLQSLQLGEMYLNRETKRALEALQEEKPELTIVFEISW", "assay": "Inhibition of NLRP3 inflammasome in LPS-induced mouse RAW264.7 cells assessed as reduction in NLRP3 activation at 10 to 30 uM primed with LPS for 4.5 hs followed by incubation with compound for 1 hr and later stimulation with ATP for 30 mins by Western blot analysis", "format": "cell-based", "details": "dose 10-30 µM, time 1.5 hrs"}, "[15]": {"target": "NACHT, LRR and PYD domains-containing protein 3 (Mus musculus) (UniProt Q8R4B8)", "assay": "Inhibition of NLRP3 inflammasome in LPS-induced mouse RAW264.7 cells assessed as downregulation of caspase-1 activation primed with LPS for 4.5 hs followed by incubation with compound for 1 hr and later stimulation with ATP for 30 mins by Western blot analysis", "format": "cell-based", "details": "dose 10-30 µM, time 1.5 hrs"}, "[16]": {"target": "NACHT, LRR and PYD domains-containing protein 3 (Mus musculus) (UniProt Q8R4B8)", "assay": "Inhibition of NLRP3 inflammasome in LPS-induced mouse RAW264.7 cells assessed as inhibition of ASC expression at 10 to 30 uM primed with LPS for 4.5 hs followed by incubation with compound for 1 hr and later stimulation with ATP for 30 mins by Western blot analysis", "format": "cell-based", "details": "dose 10-30 µM, time 1.5 hrs"}, "Mus musculus [17]": {"system": "Mus musculus", "assay": "Antiinflammatory activity against DSS-induced ulcerative colitis BALB/c mouse assessed as suppression of weight loss at 0.25 mg/kg, po for 5 days and measured on day 10", "format": "functional, organism-based", "details": "time 10.0 day"}, "Mus musculus [18]": {"system": "Mus musculus", "assay": "Antiinflammatory activity against DSS-induced ulcerative colitis BALB/c mouse assessed as attenuation of colonic length reduction at 0.25 mg/kg, po for 5 days and measured after 12 days", "format": "functional, organism-based", "details": "time 12.0 day"}, "Mus musculus [19]": {"system": "Mus musculus", "assay": "Antiinflammatory activity against DSS-induced ulcerative colitis BALB/c mouse assessed as reduction in DAI score at 0.25 mg/kg, po for 5 days and measured after 12 days", "format": "functional, organism-based", "details": "time 12.0 day"}, "Mus musculus [20]": {"system": "Mus musculus", "assay": "Antiinflammatory activity against DSS-induced ulcerative colitis BALB/c mouse assessed as amelioration of leucocyte infiltration at 0.25 mg/kg, po for 5 days and measured after 12 days", "format": "functional, organism-based", "details": "time 12.0 day"}, "Mus musculus [21]": {"system": "Mus musculus", "assay": "Antiinflammatory activity against DSS-induced ulcerative colitis BALB/c mouse assessed as amelioration of inflammatory cell infiltration at 0.25 mg/kg, po for 5 days and measured after 12 days", "format": "functional, organism-based", "details": "time 12.0 day"}, "Mus musculus [22]": {"system": "Mus musculus", "assay": "Antiinflammatory activity against DSS-induced ulcerative colitis BALB/c mouse assessed as amelioration of goblet cell depletion at 0.25 mg/kg, po for 5 days and measured after 12 days", "format": "functional, organism-based", "details": "time 12.0 day"}, "Mus musculus [23]": {"system": "Mus musculus", "assay": "Antiinflammatory activity against DSS-induced ulcerative colitis BALB/c mouse assessed as amelioration of atrophied blood sinusoids at 0.25 mg/kg, po for 5 days and measured after 12 days", "format": "functional, organism-based", "details": "time 12.0 day"}, "Mus musculus [24]": {"system": "Mus musculus", "assay": "Protection against DSS-induced ulcerative colitis BALB/c mouse assessed as recovery of blood sinusoids at 0.25 mg/kg, po for 5 days and measured after 12 days by H and E staining based analysis", "format": "functional, organism-based", "details": "time 12.0 day"}, "Mus musculus [25]": {"system": "Mus musculus", "assay": "Protection against DSS-induced ulcerative colitis BALB/c mouse assessed as recovery of cell matrix development at 0.25 mg/kg, po for 5 days and measured after 12 days by H and E staining based analysis", "format": "functional, organism-based", "details": "time 12.0 day"}}, "note": "Activity calls are given as the source filed them. No cut-off for these calls is given here."}
{"smiles": "COc1ccccc1C1=Nn2c(Cc3ccccc3Nc3c(Cl)cccc3Cl)nnc2SC1", "values": [{"measurement": "Ratio IC50", "setting": "[1]", "value": 17.2}, {"measurement": "Activity", "setting": "RAW264.7 [2]", "value": "Dose-Dependent Effect"}, {"measurement": "Activity", "setting": "RAW264.7 [3]", "value": "Dose-Dependent Effect"}, {"measurement": "Activity", "setting": "RAW264.7 [4]", "value": "Active"}, {"measurement": "Activity", "setting": "RAW264.7 [5]", "value": "Dose-Dependent Effect"}, {"measurement": "Activity", "setting": "RAW264.7 [6]", "value": "Dose-Dependent Effect"}, {"measurement": "Activity", "setting": "RAW264.7 [7]", "value": "Active"}, {"measurement": "inhibition", "setting": "RAW264.7 [8]", "value": "Dose-Dependent Effect"}, {"measurement": "inhibition", "setting": "RAW264.7 [9]", "value": "Dose-Dependent Effect"}, {"measurement": "inhibition", "setting": "RAW264.7 [10]", "value": "Dose-Dependent Effect"}, {"measurement": "inhibition", "setting": "RAW264.7 [11]", "value": "inactive"}, {"measurement": "inhibition", "setting": "RAW264.7 [12]", "value": "inactive"}, {"measurement": "Activity", "setting": "RAW264.7 [13]", "value": "Non-Toxic"}, {"measurement": "inhibition", "setting": "[14]", "value": "Active"}, {"measurement": "inhibition", "setting": "[15]", "value": "Dose-Dependent Effect"}, {"measurement": "inhibition", "setting": "[16]", "value": "Active"}, {"measurement": "Activity", "setting": "Mus musculus [17]", "value": "Active"}, {"measurement": "Activity", "setting": "Mus musculus [18]", "value": "Active"}, {"measurement": "Activity", "setting": "Mus musculus [19]", "value": "Active"}, {"measurement": "Activity", "setting": "Mus musculus [20]", "value": "Active"}, {"measurement": "Activity", "setting": "Mus musculus [21]", "value": "Active"}, {"measurement": "Activity", "setting": "Mus musculus [22]", "value": "Active"}, {"measurement": "Activity", "setting": "Mus musculus [23]", "value": "Active"}, {"measurement": "Activity", "setting": "Mus musculus [24]", "value": "Active"}, {"measurement": "Activity", "setting": "Mus musculus [25]", "value": "Active"}]}
